According to patent US20240335569A1, “FIBROBLAST ACTIVATION PROTEIN INHIBITORS AND USE THEREOF” (3 B PHARMACEUTICALS GMBH, priority 2021, published 2024):

Assays:
[1] = target: FAP-expressing human WI-38 fibroblasts (Homo sapiens (Human), UniProt Q12884); test: FACS binding assay (competitive, Cy5-labeled 3BP-2935)
Protocol: In order to determine binding of compounds according to the present invention to FAP-expressing cells, a competitive FACS binding assay was established. […] Cells were diluted in FACS buffer to a final concentration of 100.000 cells per ml and 200 μl of the cell suspension are transferred to a u-shaped non-binding 96-well plate (Greiner). […] Cell were washed twice with FACS buffer (see above) and resuspended in 200 μl FACS buffer. Cells were analyzed in an Attune NxT flow cytometer (Thermo Fisher Scientific). Median fluorescence intensities (Cy5 channel) were calculated by Attune NxT software and plotted against test compound concentrations. Four parameter logistic (4PL) curve fitting and pIC50 calculations were performed using ActivityBase software.

Human recombinant FAP [2] = target: T1, Human recombinant FAP (Homo sapiens (Human), UniProt Q12884); test: FAP protease activity assay (human), FRET-based; assay type: biochemical; settings: for IC50: read-out: pIC50 (Activity) (converted)
Protocol: (§1) In order to determine the inhibitory activity a FRET-based FAP protease activity assay was established.
Four parameter logistic (4PL) curve fitting and pIC50 calculations were performed using ActivityBase software (IDBS).
Target sequence in this assay (Q12884 26-760): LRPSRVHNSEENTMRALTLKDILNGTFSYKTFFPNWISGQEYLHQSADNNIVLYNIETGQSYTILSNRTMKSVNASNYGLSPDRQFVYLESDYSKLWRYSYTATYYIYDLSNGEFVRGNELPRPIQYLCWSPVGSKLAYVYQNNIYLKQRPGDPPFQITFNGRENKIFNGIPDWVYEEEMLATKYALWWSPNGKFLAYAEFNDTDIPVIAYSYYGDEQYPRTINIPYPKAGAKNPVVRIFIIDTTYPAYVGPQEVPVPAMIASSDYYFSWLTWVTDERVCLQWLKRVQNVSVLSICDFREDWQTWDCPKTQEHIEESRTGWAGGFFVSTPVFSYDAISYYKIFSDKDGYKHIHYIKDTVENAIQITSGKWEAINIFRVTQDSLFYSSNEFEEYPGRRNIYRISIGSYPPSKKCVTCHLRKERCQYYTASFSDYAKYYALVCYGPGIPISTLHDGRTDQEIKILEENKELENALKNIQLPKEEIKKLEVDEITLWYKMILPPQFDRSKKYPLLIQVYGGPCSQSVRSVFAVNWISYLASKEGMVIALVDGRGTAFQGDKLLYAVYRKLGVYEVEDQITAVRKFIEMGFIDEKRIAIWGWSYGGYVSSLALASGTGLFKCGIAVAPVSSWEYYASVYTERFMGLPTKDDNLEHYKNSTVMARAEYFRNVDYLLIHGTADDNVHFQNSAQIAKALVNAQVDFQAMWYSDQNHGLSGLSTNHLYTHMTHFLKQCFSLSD

Recombinant mouse FAP = Recombinant mouse FAP (Mus musculus (Mouse), UniProt P97321); test: FAP protease activity assay (mouse), FRET-based; assay type: biochemical
Recombinant mouse FAP, sequence (P97321 whole entry): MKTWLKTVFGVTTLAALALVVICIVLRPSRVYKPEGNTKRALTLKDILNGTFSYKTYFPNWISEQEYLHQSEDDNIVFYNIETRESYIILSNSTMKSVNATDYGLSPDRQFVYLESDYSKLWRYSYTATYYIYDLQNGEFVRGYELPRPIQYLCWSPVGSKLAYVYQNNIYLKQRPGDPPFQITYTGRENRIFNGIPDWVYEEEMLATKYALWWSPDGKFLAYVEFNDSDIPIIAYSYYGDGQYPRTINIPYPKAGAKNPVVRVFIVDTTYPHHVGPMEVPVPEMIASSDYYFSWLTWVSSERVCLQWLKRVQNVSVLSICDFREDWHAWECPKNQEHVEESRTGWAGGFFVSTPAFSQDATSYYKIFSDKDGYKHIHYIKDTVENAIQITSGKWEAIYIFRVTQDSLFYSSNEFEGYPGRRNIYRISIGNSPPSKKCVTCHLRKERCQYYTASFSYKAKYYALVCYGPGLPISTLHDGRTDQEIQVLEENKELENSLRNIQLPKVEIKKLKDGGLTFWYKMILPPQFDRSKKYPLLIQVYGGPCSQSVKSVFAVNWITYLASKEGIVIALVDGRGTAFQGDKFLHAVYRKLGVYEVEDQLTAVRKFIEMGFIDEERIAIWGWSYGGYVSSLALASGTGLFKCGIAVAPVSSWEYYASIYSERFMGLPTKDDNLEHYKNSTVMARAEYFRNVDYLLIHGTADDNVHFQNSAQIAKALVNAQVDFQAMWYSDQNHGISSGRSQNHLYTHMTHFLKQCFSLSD
Protocol: as §1
Four parameter logistic (4PL) curve fitting and pIC50 calculations were performed using ActivityBase software.

Recombinant human DPP4 = Recombinant human DPP4 (Homo sapiens (Human), UniProt P27487); test: DPP4 protease activity assay; assay type: biochemical
Recombinant human DPP4, sequence (P27487 whole entry): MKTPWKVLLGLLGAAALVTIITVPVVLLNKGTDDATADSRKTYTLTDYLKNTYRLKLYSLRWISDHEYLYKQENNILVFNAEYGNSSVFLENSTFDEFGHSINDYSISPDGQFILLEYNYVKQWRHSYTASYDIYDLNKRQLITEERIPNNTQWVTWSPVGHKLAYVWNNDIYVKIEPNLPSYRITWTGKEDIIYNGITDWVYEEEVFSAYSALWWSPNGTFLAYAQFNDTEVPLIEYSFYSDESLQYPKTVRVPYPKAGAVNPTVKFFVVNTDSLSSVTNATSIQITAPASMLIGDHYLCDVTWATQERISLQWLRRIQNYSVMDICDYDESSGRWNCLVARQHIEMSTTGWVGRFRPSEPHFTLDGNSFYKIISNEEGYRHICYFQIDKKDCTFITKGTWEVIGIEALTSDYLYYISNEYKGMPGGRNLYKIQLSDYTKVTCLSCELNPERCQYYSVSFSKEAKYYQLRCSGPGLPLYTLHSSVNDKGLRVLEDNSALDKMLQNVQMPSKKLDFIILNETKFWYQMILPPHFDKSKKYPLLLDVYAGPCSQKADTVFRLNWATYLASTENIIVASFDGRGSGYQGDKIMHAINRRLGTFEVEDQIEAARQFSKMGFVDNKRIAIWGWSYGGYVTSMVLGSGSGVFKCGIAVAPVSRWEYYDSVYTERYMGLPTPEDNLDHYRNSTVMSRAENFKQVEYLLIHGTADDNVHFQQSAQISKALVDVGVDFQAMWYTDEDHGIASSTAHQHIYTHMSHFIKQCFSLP
Protocol: The PREP activity assay was performed using the FACS buffer (PBS including 1% FBS, Sigma-Aldrich, Cat #D8537). […] The DPP4 activity assay was performed in DPP assay buffer (25 mM Tris, pH 8.0). […] Four parameter logistic (4PL) curve fitting and pIC50 calculations were performed using ActivityBase software.

Human recombinant FAP [3] = target: T1, Human recombinant FAP; test: Surface plasmon resonance assay (Biacore T200, SCK); assay type: binding; settings: for HL [min] (Biacore): SPR dissociation half-life; for Kd: read-out: pKD (Biacore) (converted)
Protocol: Surface plasmon resonance studies were performed using a Biacore™ T200 SPR system (Cytiva, formerly GE Healthcare). Briefly, polarized light is directed towards a gold-labeled sensor surface, and minimum intensity reflected light is detected. The angle of reflected light changes as molecules bind and dissociate. […] Test compounds are contacted with the loaded surface, and a real-time interaction profile with the FAP ligand is recorded in a sensorgram. In real-time, the association and dissociation of a binding interaction is measured, enabling calculation of association and dissociation rate constants and the corresponding affinity constants. Importantly, a background response is generated due to the difference in the refractive indices of the running and sample buffers, as well as unspecific binding of the test compounds to the flow cell surface. This background is measured and subtracted by running the sample on a control flow cell coated with the same density of capture antibody in the absence of immobilized FAP. Furthermore, baseline drift correction of the binding data is performed, which is caused by slow dissociation of the captured FAP from the immobilized antibody. This drift is measured by injecting running buffer through a flow cell with the antibody and FAP immobilized to the sensor surface.
Biacore™ CM5 sensor chips were used. […] A 150 μL aliquot was transferred into plastic vials and placed into the sample rack of the Biacore™ T200 instrument. Amine Coupling Kit Reagent solutions were transferred into plastic vials and placed into the sample rack: 90 μL of 0.4 M 1-ethyl-3-(3-dimethylaminopropyl) carbodiimide (EDC), and 90 μL of 0.1 M N-hydroxysuccinimide (NHS). A 130 μL aliquot of 1 M ethanolamine-HCl, pH 8.5, was transferred into plastic vials and placed into the sample rack. The Biacore™ liquid system was set-up as follows: Separate bottles containing distilled water (1 L), Running Buffer (500 mL), as well as an empty bottle for waste were placed onto the buffer tray. A preinstalled program for immobilization was used, with an immobilization level of 7000 RU. Immobilization was performed at 25° C. The immobilization procedure of anti-FAP antibodies was performed, as described in the Table 4.
Human recombinant FAP was diluted in Running Buffer to a final concentration of 20 μg/mL. A 100 μL aliquot of human FAP-Working-Solution was transferred into plastic vials and placed into a sample rack. A 0.5 mM Compound-Stock-Solution was prepared by dissolving each compound in DMSO. For each test compound, Compound-Stock-Solutions were diluted in Running Buffer (HBST) at 500 nM and further diluted with HBST-DMSO Buffer (0.1% DMSO). SPR binding analyses for binary complexes were performed in SCK mode at 25° C. Following three SCK measurements, a baseline drift was assessed by injecting running buffer through a flow cell, with the antibody and FAP immobilized to the sensor surface.
For each test compound, SPR raw data in the form of resonance units (RU) were plotted as sensorgrams using the Biacore™ T200 control software. The signal from the blank sensorgram was subtracted from that of the test compound sensorgram (blank corrected). The blank corrected sensorgram was corrected for baseline drift by subtracting the sensorgram of a SCK run without the test compound (running buffer only). The association rate (kon), dissociation rate (koff), dissociation constant (KD), and t1/2 were calculated from Blank-normalized SPR data using the 1:1 Langmuir binding model from the Biacore™ T200 evaluation software. Raw data and fit results were imported as text files in IDBS. The pKD value (negative decadic logarithm of dissociation constant) was calculated in the IDBS excel template.
Target sequence in this assay (Q12884 whole entry): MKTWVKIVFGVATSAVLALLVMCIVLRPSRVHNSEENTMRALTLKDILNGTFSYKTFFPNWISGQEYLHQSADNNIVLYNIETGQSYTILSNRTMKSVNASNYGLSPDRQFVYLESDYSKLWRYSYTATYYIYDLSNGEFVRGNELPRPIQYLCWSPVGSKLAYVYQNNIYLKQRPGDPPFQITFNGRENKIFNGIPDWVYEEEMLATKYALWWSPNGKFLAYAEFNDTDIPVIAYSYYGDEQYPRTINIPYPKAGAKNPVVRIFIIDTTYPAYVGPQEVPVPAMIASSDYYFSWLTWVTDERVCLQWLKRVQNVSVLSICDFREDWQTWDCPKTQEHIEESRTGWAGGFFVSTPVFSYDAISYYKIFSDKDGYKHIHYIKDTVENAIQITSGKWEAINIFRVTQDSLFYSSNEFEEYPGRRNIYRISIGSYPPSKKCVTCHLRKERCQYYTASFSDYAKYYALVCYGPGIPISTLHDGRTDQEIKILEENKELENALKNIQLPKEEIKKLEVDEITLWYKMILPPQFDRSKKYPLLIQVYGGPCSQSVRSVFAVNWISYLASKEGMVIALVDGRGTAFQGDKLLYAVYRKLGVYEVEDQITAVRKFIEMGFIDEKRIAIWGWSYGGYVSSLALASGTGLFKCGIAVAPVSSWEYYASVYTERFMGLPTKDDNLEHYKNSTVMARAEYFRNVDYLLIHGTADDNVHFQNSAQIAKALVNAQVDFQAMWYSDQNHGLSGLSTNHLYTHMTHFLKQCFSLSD

[4] = human FAP protease activity, FRET
[5] = recombinant mouse FAP protease activity

FAP-expressing human WI-38 fibroblasts, sequence (Q12884 whole entry): as above

pIC50 (FACS) ([1]; WI-38 fibroblasts)	pIC50 (Activity) (Human recombinant FAP [2]; [4])	HL [min] (Biacore) (Human recombinant FAP [3])	SMILES	also measured
7.7	8.2		COc1cccc2c(C(=O)NCC(=O)N3CC(F)(F)C[C@H]3C#N)ccnc12 [Compound 3BP-4085]	
7.6	7.9		Cc1cccc2c(C(=O)NCC(=O)N3CC(F)(F)C[C@H]3C#N)ccnc12 [Compound 3BP-4150]	
7.7	8.5		CCOc1cccc2c(C(=O)NCC(=O)N3CC(F)(F)C[C@H]3C#N)ccnc12 [Compound 3BP-4151]	
		>150 min	O=C(O)CN1CCN(CC(=O)O)CCN(CC(=O)NCCCNC(=O)c2ccc(-c3ccc4nccc(C(=O)NCC(=O)N5CCC[C@H]5B(O)O)c4c3)cc2)CCN(CC(=O)O)CC1 [Compound 3BP-4201]	pKD (Biacore) (Human recombinant FAP [3]; SPR): >10.5

The next lines start with the molecule.

SMILES	pIC50 (FACS) ([1]; WI-38 fibroblasts)	pIC50 (Activity) (Human recombinant FAP [2]; [4])	HL [min] (Biacore) (Human recombinant FAP [3])	also measured
N#C[C@@H]1CC(F)(F)CN1C(=O)CNC(=O)c1ccnc2ccc(OCCCN3CCN(C(=O)CN4CCN5CCN6CCN(CC4)CC(=O)[O][Eu]([O]C(=O)C6)[O]C(=O)C5)CC3)cc12 [Compound 3BP-3663]				pIC50 (FACS) ([1]; FAP-expressing WI-38 fibroblasts): 8.6; pIC50 (Activity) (Human recombinant FAP [2]; recombinant human FAP, FRET protease activity): 9.3; pIC50 (mouseFAP) (Recombinant mouse FAP; recombinant mouse FAP, FRET protease activity): 9.1
CS(=O)(=O)c1ccc(-c2ccc3nccc(C(=O)NCC(=O)N4C[C@H](F)C[C@H]4C#N)c3c2)cc1 [Compound 3BP-3773]	7.3	8.5		pIC50 (mouseFAP) (Recombinant mouse FAP; [5]): 8; pIC50 (DPP4) (Recombinant human DPP4): <6
N#C[C@@H]1CCCN1C(=O)CNC(=O)c1ccnc2ccc(-c3ccc(C(=O)NCCCNC(=O)CN4CCN(CC(=O)O)CCN(CC(=O)O)CCN(CC(=O)O)CC4)cc3)cc12 [Compound 3BP-3785]			>150 min	
Cc1cc2nccc(C(=O)NCC(=O)N3CC(F)(F)C[C@H]3C#N)c2cc1-c1ccc(S(C)(=O)=O)cc1 [Compound 3BP-4026]	8.9	9.3		pIC50 (mouseFAP) (Recombinant mouse FAP; [5]): 8.8
N#C[C@@H]1CC(F)(F)CN1C(=O)CNC(=O)c1ccnc2ccc(-c3ccc(C(=O)NCCN4CCN(C(=O)CN5CCN(CC(=O)O)CCN(CC(=O)O)CCN(CC(=O)O)CC5)CC4)nc3)cc12 [Compound 3BP-4076, (S)-2,2′,2″-(10-(2-(4-(2-(5-(4-(2-(2-cyano-4,4-difluoropyrrolidin-1-yl)-2-oxoethylcarbamoyl)quinolin-6-yl)picolinamido)ethyl)piperazin-1-yl)-2-oxoethyl)-1,4,7,10-tetraazacyclododecane-1,4,7-triyl)triacetic Acid]			>150 min	IC50 ([1]; WI-38 fibroblasts): 1.26 nM; IC50 (Human recombinant FAP [2]; [4]): 0.631 nM; Kd (Human recombinant FAP [3]; SPR): < 0.0316 nM
O=C(NCC(=O)N1CCC[C@H]1B(O)O)c1ccnc2ccccc12 [Compound 3BP-4081]	8.5	8.9		
CS(=O)(=O)c1ccc(-c2ccc3nccc(C(=O)NCC(=O)N4CC(F)(F)C[C@H]4C#N)c3c2)c(CO)c1 [Compound 3BP-4084, (S)—N-(2-(2-cyano-4,4-difluoropyrrolidin-1-yl)-2-oxoethyl)-6-(2-(hydroxymethyl)-4-(methylsulfonyl)phenyl)quinoline-4-carboxamide]			>150 min	
O=C(NCC(=O)N1CCC[C@H]1C(=O)CO)c1ccnc2ccccc12 [Compound 3BP-4197, (S)—N-(2-(2-(2-hydroxyacetyl)pyrrolidin-1-yl)-2-oxoethyl)quinoline-4-carboxamide]			3.1 min	IC50 ([1]; WI-38 fibroblasts): 10 nM; IC50 (Human recombinant FAP [2]; [4]): 3.16 nM; Kd (Human recombinant FAP [3]; SPR): 1 nM
